{"source": "patent US6599514B1", "about": "“Antifungal composition” (Syngenta Limited, priority 1997, dated 2003)", "assay_type_in_all_cases": "cell-based", "key": {"Fusarium culmorum": {"test_system": "Fusarium culmorum", "assay": "Antifungal microplate growth inhibition assay (MIC)", "conditions": "48 h, 24° C.; for MIC / concentration required alone to give strong growth inhibition: medium B (½ PDB + 1 mM CaCl2 + 50 mM KCl), agent used alone", "protocol": "(§1) Unless otherwise stated the incubation was carried out at 24° C. for 48 hours. Percentages of fungal growth were estimated by microscopic examination of the microplates after the incubation period. The control microcultures were used as a reference in order to estimate fungal growth inhibition.\n(§2) The antifungal potency of the purified proteins was assessed on different food spoilage fungi using the assay described above. Growth of fungi, collection and harvest of fungal spores were done as previously described (Broekaert et al., 1990, FEMS Microbiol. Lett., 69: 55-60).\n(§3) The percentage growth inhibition was estimated by microscopic inspection of the microtitre plates, taking the microculture control with no antifungal protein added as a reference for normal fungal growth.\n(§4) The Ib-AMP1 pure protein was added to the test solution and mixed with the fungal spore suspension as described above. Following inoculation the plates were incubated at 24° C. for 48 hours. […] A summary of the results obtained is shown on table 14."}, "Penicillium chrysogenum": {"test_system": "Penicillium chrysogenum", "assay": "Antifungal microplate growth inhibition assay (MIC, growth % of control)", "conditions": "for Fungal growth as compared to the control: individual application; for MIC / concentration required alone to give strong growth inhibition: medium B (½ PDB + 1 mM CaCl2 + 50 mM KCl), agent used alone", "protocol": "as §1, §2, §3\n(§5) Following inoculation the plates were incubated at 24° C. for 48 hours.\n(§6) Chitinase-I and β-1,3-glucanase were extracted and purified from tobacco according to the method published by Sela-Buurlage, M. B., et al., in 1993 (Plant Physiol. 101, 857-863). The purified enzymes were mixed in a 1:1 ratio and then tested for antifungal activity against the food spoilage fungal strains Penicillium roquefortii and P. chrysogenum. The antifungal assays were carried out as described above. Assessment of growth inhibition was carried out by microscopic examination after 48 and 96 hours incubation at 24° C.\n(§7) In Colby's formula, E1=X1Y1/100, X1 and Y1 represent growth as a percentage of control with compound A (dosage p) and compound B (dosage q), respectively. E1 is the i5 expected growth as a percentage of control with the mixture A and B (dosage p+q). […] Comparison of the observed and expected percent inhibition responses (Eobs/Eexp) indicates synergism (Eobs/Eexp>1) or antagonism (Eobs/Eexp<1)."}, "Penicillium roquefortii": {"test_system": "Penicillium roquefortii", "assay": "Antifungal microplate growth inhibition assay (MIC, growth % of control)", "conditions": "for MIC / concentration required alone to give strong growth inhibition: medium B (½ PDB + 1 mM CaCl2 + 50 mM KCl), agent used alone; for Fungal growth as compared to the control: individual application", "protocol": "as §1, §2, §3, §5, §6, §7"}, "[1]": {"test_system": "range of food spoilage strains", "assay": "Antifungal microplate assay, statements on the whole range of strains", "conditions": "200 ppm (maximum concentration tested), medium B, 48 hours, 24° C.", "protocol": "as §1\nThe following fungal strains were used: Fusarium culmorum, Penicillium chrysogenum, Penicillium roquefortii, Penicillium commune, Penicillium nalgiovense, Mucor plumbeus, Scopulariopsis brevicaulis, Aspergillus versicolor, Alternaria sp., Cladosporium sp. and Trichoderma harzianum.\nas §3, §4"}, "Cladosporium sp.": {"test_system": "Cladosporium sp.", "assay": "Antifungal microplate growth inhibition assay (MIC)", "conditions": "48 h, 24° C.; for MIC / concentration required alone to give strong growth inhibition: medium B (½ PDB + 1 mM CaCl2 + 50 mM KCl), agent used alone", "protocol": "as §1, §2, §3, §5"}, "Trichoderma harzianum": {"test_system": "Trichoderma harzianum", "assay": "Antifungal microplate growth inhibition assay (MIC)", "conditions": "48 h, 24° C.; for MIC / concentration required alone to give strong growth inhibition: medium B (½ PDB + 1 mM CaCl2 + 50 mM KCl), agent used alone", "protocol": "as §1, §2, §3, §5"}, "Alternaria sp.": {"test_system": "Alternaria sp.", "assay": "Antifungal microplate growth inhibition assay (MIC)", "conditions": "48 h, 24° C.; for MIC / concentration required alone to give strong growth inhibition: medium B (½ PDB + 1 mM CaCl2 + 50 mM KCl), agent used alone", "protocol": "as §1, §2, §3, §5"}, "Mucor plumbeus": {"test_system": "Mucor plumbeus", "assay": "Antifungal microplate growth inhibition assay (MIC)", "conditions": "medium B (½ PDB + 1 mM CaCl2 + 50 mM KCl), 48 h, 24° C., agent used alone"}, "Penicillium commune": {"test_system": "Penicillium commune", "assay": "Antifungal microplate growth inhibition assay (MIC)", "conditions": "medium B (½ PDB + 1 mM CaCl2 + 50 mM KCl), 48 h, 24° C., agent used alone", "protocol": "Unless otherwise stated the incubation was carried out at 24° C. for 48 hours. Percentages of fungal growth were estimated by microscopic examination of the microplates after the incubation period. The control microcultures were used as a reference in order to estimate fungal growth inhibition. […] The antifungal potency of the purified proteins was assessed on different food spoilage fungi using the assay described above. Growth of fungi, collection and harvest of fungal spores were done as previously described (Broekaert et al., 1990, FEMS Microbiol. Lett., 69: 55-60). […] The percentage growth inhibition was estimated by microscopic inspection of the microtitre plates, taking the microculture control with no antifungal protein added as a reference for normal fungal growth."}, "[2]": {"conditions": "medium B, 96 hours, 24° C., used alone"}, "[3]": {"conditions": "medium A (½ PDB), protein alone"}, "[4]": {"conditions": "medium A (½ PDB), 48 h, 24° C., protein alone"}}}
{"compound": "COc1ccc(O)c(C(C)(C)C)c1", "note": "[BHA, butylated hydroxyanisole]", "values": [{"measurement": "MIC / concentration required alone to give strong growth inhibition", "setting": "Fusarium culmorum", "result": ">200", "unit": "ppm"}, {"measurement": "Fungal growth as compared to the control", "setting": "Penicillium chrysogenum; 50 ppm, medium B", "result": 99, "unit": "%"}, {"measurement": "MIC / concentration required alone to give strong growth inhibition", "setting": "Penicillium chrysogenum; 48 h, 24° C.", "result": ">200", "unit": "ppm"}, {"measurement": "MIC / concentration required alone to give strong growth inhibition", "setting": "Penicillium roquefortii; 48 h, 24° C.", "result": ">200", "unit": "ppm"}, {"measurement": "Antifungal activity of BHA added alone", "setting": "[1]", "result": "no antifungal activity was observed"}, {"measurement": "MIC / concentration required alone to give strong growth inhibition", "setting": "Cladosporium sp.", "result": ">200", "unit": "ppm"}, {"measurement": "MIC / concentration required alone to give strong growth inhibition", "setting": "Trichoderma harzianum", "result": ">200", "unit": "ppm"}, {"measurement": "MIC / concentration required alone to give strong growth inhibition", "setting": "Alternaria sp.", "result": ">200", "unit": "ppm"}, {"measurement": "MIC / concentration required alone to give strong growth inhibition", "setting": "Mucor plumbeus", "result": ">200", "unit": "ppm"}]}
{"compound": "O=C([O-])CN(CCN(CC(=O)[O-])CC(=O)[O-])CC(=O)[O-].[Ca+2].[Na+].[Na+]", "note": "[CaNa2EDTA, calcium disodium EDTA]", "values": [{"measurement": "MIC / concentration required alone to give strong growth inhibition", "setting": "Penicillium chrysogenum; 48 h, 24° C.", "result": ">150", "unit": "ppm"}, {"measurement": "MIC / concentration required alone to give strong growth inhibition", "setting": "Penicillium roquefortii; 48 h, 24° C.", "result": ">150", "unit": "ppm"}]}
{"compound": "O=C(O)CN(CCN(CC(=O)O)CC(=O)O)CC(=O)O", "note": "[EDTA]", "values": [{"measurement": "MIC / concentration required alone to give strong growth inhibition", "setting": "Penicillium chrysogenum; 48 h, 24° C.", "result": 200, "unit": "ppm"}, {"measurement": "MIC / concentration required alone to give strong growth inhibition", "setting": "Penicillium roquefortii; 48 h, 24° C.", "result": ">200", "unit": "ppm"}, {"measurement": "MIC / concentration required alone to give strong growth inhibition", "setting": "Penicillium commune", "result": ">200", "unit": "ppm"}]}
{"compound": "C/C=C/C=C/C(=O)[O-].[K+]", "note": "[K sorbate, potassium sorbate]", "values": [{"measurement": "Fungal growth inhibition, % of the controls", "setting": "Penicillium chrysogenum; K sorbate alone, 96 hours incubation, medium B, strain not told apart from P. roquefortii", "result": "10-20%"}, {"measurement": "MIC / concentration required alone to give strong growth inhibition", "setting": "Penicillium chrysogenum; 48 h, 24° C.", "result": 1000, "unit": "ppm"}, {"measurement": "Concentration required alone to give strong growth inhibition", "setting": "Penicillium chrysogenum; [2]", "result": ">2,000 ppm"}, {"measurement": "Fungal growth inhibition, % of the controls", "setting": "Penicillium roquefortii; K sorbate alone, 96 hours incubation, medium B, strain not told apart from P. chrysogenum", "result": "10-20%"}, {"measurement": "Fungal growth as compared to the control", "setting": "Penicillium roquefortii; 500 ppm, medium B", "result": 90, "unit": "%"}, {"measurement": "MIC / concentration required alone to give strong growth inhibition", "setting": "Penicillium roquefortii; 48 h, 24° C.", "result": 1500, "unit": "ppm"}, {"measurement": "Concentration required alone to give strong growth inhibition", "setting": "Penicillium roquefortii; [2]", "result": ">2,000 ppm"}]}
{"compound": "CC(O)C(=O)O", "note": "(stereo not shown) [Lactic acid, lactic acid]", "values": [{"measurement": "Fungal growth as compared to the control", "setting": "Penicillium chrysogenum; 2500 ppm, medium B", "result": 90, "unit": "%"}, {"measurement": "MIC / concentration required alone to give strong growth inhibition", "setting": "Penicillium chrysogenum; 48 h, 24° C.", "result": "20,000 ppm"}]}
{"compound": "O=C([O-])CN(CCN(CC(=O)O)CC(=O)O)CC(=O)[O-].[Na+].[Na+]", "note": "[Na2H2EDTA, disodium dihydrogen EDTA]", "values": [{"measurement": "Fungal growth as compared to the control", "setting": "Penicillium chrysogenum; 75 ppm, medium B", "result": 90, "unit": "%"}, {"measurement": "MIC / concentration required alone to give strong growth inhibition", "setting": "Penicillium chrysogenum; 48 h, 24° C.", "result": ">150", "unit": "ppm"}]}
{"compound": "O=C([O-])c1ccccc1.[Na+]", "note": "[Na benzoate, sodium benzoate]", "values": [{"measurement": "Fungal growth as compared to the control", "setting": "Penicillium chrysogenum; 500 ppm, medium B", "result": 99, "unit": "%"}, {"measurement": "MIC / concentration required alone to give strong growth inhibition", "setting": "Penicillium chrysogenum; 48 h, 24° C.", "result": 6000, "unit": "ppm"}]}
{"compound": "Rs-AFP2: purified antifungal protein of Raphanus sativus (radish) seeds, described in WO93/05153 (QKLCQRPSGTWSGVCGNNNACKNQCIRLEKARHGSCNYVFPAHKCICYFPC; UniProt P30230 30-80, looked up)", "values": [{"measurement": "MIC (minimum concentration giving more than 90% growth inhibition)", "setting": "Fusarium culmorum; [3]", "result": 3.1, "unit": "ppm"}, {"measurement": "MIC / concentration required alone to give strong growth inhibition", "setting": "Fusarium culmorum", "result": 12.5, "unit": "ppm"}, {"measurement": "MIC (minimum concentration giving more than 90% growth inhibition)", "setting": "Penicillium chrysogenum; [4]", "result": ">200", "unit": "ppm"}, {"measurement": "MIC / concentration required alone to give strong growth inhibition", "setting": "Penicillium chrysogenum; 48 h, 24° C.", "result": ">200", "unit": "ppm"}, {"measurement": "Fungal growth as compared to the control", "setting": "Penicillium roquefortii; 3.1 ppm, medium B", "result": 100, "unit": "%"}, {"measurement": "MIC (minimum concentration giving more than 90% growth inhibition)", "setting": "Penicillium roquefortii; [4]", "result": 3, "unit": "ppm"}, {"measurement": "MIC / concentration required alone to give strong growth inhibition", "setting": "Penicillium roquefortii; 48 h, 24° C.", "result": 25, "unit": "ppm"}, {"measurement": "MIC (minimum concentration giving more than 90% growth inhibition)", "setting": "Cladosporium sp.; [3]", "result": 100, "unit": "ppm"}, {"measurement": "MIC / concentration required alone to give strong growth inhibition", "setting": "Cladosporium sp.", "result": ">200", "unit": "ppm"}, {"measurement": "MIC (minimum concentration giving more than 90% growth inhibition)", "setting": "Trichoderma harzianum; [3]", "result": 200, "unit": "ppm"}, {"measurement": "MIC / concentration required alone to give strong growth inhibition", "setting": "Trichoderma harzianum", "result": ">200", "unit": "ppm"}, {"measurement": "MIC (minimum concentration giving more than 90% growth inhibition)", "setting": "Alternaria sp.; [3]", "result": 6.25, "unit": "ppm"}, {"measurement": "MIC / concentration required alone to give strong growth inhibition", "setting": "Alternaria sp.", "result": 200, "unit": "ppm"}]}
